Experimental data from PubChem BioAssay AID1845228.

Conditions: pampa; 60.0 min; 50.0 µM

Compound | Papp [×10⁻⁶ cm/s]
CCO[C@@H]1OC(=O)C[C@@H]1NC(=O)[C@@H]1CCCN2C(=O)CC[C@H](NC(=O)c3nccc4ccccc34)C(=O)N12 | < 1
CO[C@@]1(NC(=O)C(C(=O)O)c2ccc(O)cc2)C(=O)N2C(C(=O)O)=C(CSc3nnnn3C)CO[C@@H]21 (stereo partly drawn) | < 1
Cn1nnnc1SCC1=C(C(=O)O)N2C(=O)[C@H](NC(=O)C(O)c3ccccc3)C2SC1 (stereo partly drawn) | < 1
N#Cc1cccc(NC(=O)c2sc3nc4c(cc3c2N)N2CCC4CC2)c1 | 142
COc1ccc2c(c[n+](C)c3c4cc5c(cc4ccc23)OCO5)c1OC | 121
COCCNC(=O)c1ccc(-c2ncc3cnc(-c4cccc(F)c4)cn23)cc1 | 95
COCCn1cnc2c(c(-c3ccccc3)c(-c3ccccc3)n2Cc2ccccc2)c1=N | 174
COC(Cn1cnc2c(c(-c3ccccc3)c(-c3ccccc3)n2Cc2ccccc2)c1=N)OC | 189
Cc1ncc(COP(=O)(O)O)c(C=O)c1O | < 1
CN(CCCCCCN(C)C(=O)Oc1ccc[n+](C)c1)C(=O)Oc1ccc[n+](C)c1 | < 1
C=CCN1CC[C@]23c4c5ccc(O)c4O[C@H]2[C@@H](OCCOCCOCCOCCOCCOCCOCCOC)CC[C@@]3(O)[C@H]1C5 | < 1
Nc1ncnc2c1ncn2[C@H]1O[C@@H](CSCC[C@@H](N)C(=O)O)[C@H](O)[C@@H]1O | < 1
NC(=O)N1CCC(CC(=O)N2CCC([C@H]3c4ncc(Br)cc4CCc4cc(Cl)cc(Br)c43)CC2)CC1 | 73.5
N[C@@H](COC(c1cccc(F)c1)c1ccccc1OCc1ccccc1)C(=O)O (stereo partly drawn) | < 1
CNS(=O)(=O)Cc1ccc2[nH]cc(CCN(C)C)c2c1 | < 1
CCN(CC)CCCC(C)Nc1ccnc2cc(Cl)ccc12 (stereo not drawn) | 8
CN1CCCC(=C(c2cccs2)c2cccs2)C1 | < 1
Oc1ccc(/C=C/c2cc(O)cc(O)c2)cc1 | 5
COC(=O)[C@]12CCC(C)(C)C[C@@H]1[C@@H]1C(=O)C=C3[C@@]4(C)C=C(C#N)C(=O)C(C)(C)[C@@H]4CC[C@@]3(C)[C@]1(C)CC2 | 8
CC(C)N(CCCCOCC(=O)NS(C)(=O)=O)c1cnc(-c2ccccc2)c(-c2ccccc2)n1 | 9
CCN1CCN(C(=O)c2ccc3c(c2)N(Cc2cc(C)ccc2C)C(=O)c2ccccc2S3(=O)=O)CC1 | 63
COc1cc2nc(N3CCC(N4CCCCC4)CC3)nc(NC3CCCCCC3)c2cc1OC | 116
COc1cc(C(C)C)c(Oc2cnc(NC(CO)CO)nc2N)cc1I | 103
Cn1nnnc1Sc1ncnc2scc(-c3cccc(F)c3)c12 | > 300
O=C1NC(=O)C(c2ccccc2)(c2ccccc2)N1 | 42

Compound | Papp [×10⁻⁶ cm/s]
Cc1cc2c(C(N)=O)cccc2n1-c1nc2c(c(NCc3ccccc3)n1)COCC2 | 90
CC(=O)O[C@H]1C[C@@H](C)O[C@H]2O[C@@H]3CC4CC[C@@H]5C(CC[C@]6(C)[C@@H](C7=CC(=O)OC7)CC[C@]56O)[C@@]4(C=O)C[C@H]3O[C@]21O (stereo partly drawn) | 54
N=c1c2c(-c3ccccc3)cn(Cc3ccccc3)c2ncn1C(CO)(CO)CO | > 300
NC(=O)NCC(=O)N[C@H]1CC[C@H](Nc2nccc(-c3ccncc3)n2)C1 | < 1
C=CC1=C(C(=O)O)N2C(=O)[C@@H](NC(=O)/C(=N\O)c3csc(N)n3)[C@H]2SC1 | < 1
CCCCCCCCCC(=O)O[C@H]1CC[C@H]2[C@@H]3CCC4=CC(=O)CC[C@@H]4[C@H]3CC[C@]12C | < 1
COc1cc(Cc2cnc(N)nc2N)cc(OC)c1OC | 14
Cn1nnnc1Sc1ncnc2scc(-c3ccc(Cl)cc3)c12 | > 300
N=c1c2c(-c3ccccc3)c(-c3ccccc3)n(Cc3ccccc3)c2ncn1[C@H](CO)Cc1ccccc1 | < 1
Cn1nnnc1Sc1ncnc2scc(-c3cccc(C#N)c3)c12 | 76
CN(C)CCN(C)C(=O)c1ccc(-c2ncc3cnc(-c4cccc(F)c4)cn23)cc1 | 90
CO/N=C(/C(=O)N[C@@H]1C(=O)N2C(C(=O)O)=CCS[C@H]12)c1csc(N)n1 | < 1
Nc1nc(N)c2c(OCC3CCN(Cc4ccccc4F)CC3)cccc2n1 | 12
CCOc1ccc(CCNC(=O)c2cc3ccccc3n2Cc2cccc(C)n2)cc1OCC | 271
CC(Oc1ccccc1)C(=O)N[C@@H]1C(=O)N2[C@@H]1SC(C)(C)[C@@H]2C(=O)O (stereo partly drawn) | 25
CCNC(=O)c1noc(-c2cc(C(C)C)c(O)cc2O)c1-c1ccc(CN2CCOCC2)cc1 | 117
O=C(N[C@H]1CCS[C@H]2CCC[C@@H](C(=O)O)N2C1=O)[C@@H](S)Cc1ccccc1 | < 1
CCOc1cc2ncc(C#N)c(Nc3ccc(F)c(Cl)c3)c2cc1NC(=O)C=CCN(C)C | 256
Cn1nnnc1Sc1ncnc2scc(-c3ccc(C#N)cc3)c12 | 63
N=c1c2c(-c3ccccc3)c(-c3ccccc3)n(Cc3ccccc3)c2ncn1CC1CCCO1 (stereo not drawn) | 207
Cc1ccc(-c2c(C(=O)CCl)n(CCCO)c3ncnc(N)c23)cc1 | 76
Cc1[nH]c2ccccc2c1C1(O)C(=O)N(Cc2ccccc2)c2ccc(Cl)cc21 (stereo not drawn) | > 300
O=C(N/N=C/c1ccc(O)c(O)c1)c1cc2ccccc2cc1O | 5
N=c1c2c(-c3ccccc3)cn(Cc3ccccc3)c2ncn1CCN | 131
CCN1CCN(C(=O)N[C@@H](C(=O)N[C@]2(OC)C(=O)N3C(C(=O)O)=C(CSc4nnnn4C)CS[C@@H]32)[C@H](C)O)C(=O)C1=O | < 1

Compound | Papp [×10⁻⁶ cm/s]
OCCOCCN1CCN(C(c2ccccc2)c2ccc(Cl)cc2)CC1 (stereo not drawn) | 114
CCN(CC)CCNc1ccc2ncn3c4ccc(O)cc4c(=O)c1c23 | 17
COc1c(C)cnc(Cn2cnc3c(Cl)nc(N)nc32)c1C | 3.17
CC[n+]1c(-c2ccccc2)c2cc(N)ccc2c2ccc(N)cc21 | 2
CCN(CC)CCCN(c1ccccc1)C1Cc2ccccc2C1 | 125
CN1N=C2CCN(C(=O)[C@H](COCc3ccccc3)NC(=O)C(C)(C)N)C[C@]2(Cc2ccccc2)C1=O | 15
Cc1oc(=O)oc1COC(=O)N1CC[C@@H](N2CC/C(=C\C3=C(C(=O)O)N4C(=O)[C@@H](NC(=O)/C(=N/O)c5nsc(N)n5)[C@H]4SC3)C2=O)C1 | 3
COc1ccc(C)cc1Nc1c2c(nc3ccccc13)CCC2 | 215
COc1cc(OC)c(OC)cc1CN1CCc2nc(N3CCN(c4ccccc4F)CC3)ncc2C1 | > 300
Cc1c2ccncc2c(C)c2c1[nH]c1ccccc12 | > 300
N[C@@H](Cc1ccc(N(CCCl)CCCl)cc1)C(=O)O | 131
Cn1cnc2c(F)c(Nc3ccc(Br)cc3F)c(C(=O)NOCCO)cc21 | 19.3
COC(Cn1cnc2c(c(-c3ccccc3)c(-c3ccccc3)n2CCc2ccccc2)c1=N)OC | 236
c1ccc(CNCCNCc2ccccc2)cc1 | 107
Nc1nc2c(s1)CCN(Cc1ccc(Cl)cc1)CC2 | 127
O=C(NN1CCCCC1)c1nn(-c2ccc(Cl)cc2Cl)c(-c2ccc(C#Cc3ccc(C(F)(F)F)cc3)s2)c1CNS(=O)(=O)N1CCCC1 | 4
CC(=O)c1cc2c(s1)c1cnn(Cc3ccccc3F)c(=O)c1n2C | > 300
O=C(O)C1=C(CSc2nnnn2CS(=O)(=O)O)CS[C@@H]2[C@H](NC(=O)[C@H](O)c3ccccc3)C(=O)N12 | 12
Cc1cccc(-n2nnnc2S(C)(=O)=O)c1 | 28.3
CO/N=C(\C(=O)N[C@@H]1C(=O)N2C(C(=O)O)=C(C[N+]3(C)CCCC3)CS[C@H]12)c1csc(N)n1 | < 1
NC(=O)[C@@H]1C[C@]2(NC(=O)NC2=O)c2cc(F)ccc2O1 | < 1
N#Cc1cccc(-c2nc(-c3cccnc3)no2)c1 | 150
NC(=O)c1ccc(-c2ncc3cnc(-c4cccc(F)c4)cn23)cc1 | 242
CC1(C)S[C@@H]2[C@H](NC(=O)C(C(=O)Oc3ccc4c(c3)CCC4)c3ccccc3)C(=O)N2[C@H]1C(=O)O (stereo partly drawn) | < 1
O=C(/C=C\n1cnc(-c2cc(C(F)(F)F)cc(C(F)(F)F)c2)n1)N1CC(F)(F)C1 | 121

Compound | Papp [×10⁻⁶ cm/s]
O=C1CCCC2=C1C(c1[nH]ncc1Cl)N=C(Nc1nc3ccccc3o1)N2 (stereo not drawn) | 275
CCCN[C@H]1CCc2nc(N)sc2C1 | 4
CCC(=O)O[C@@H](OP(=O)(CCCCc1ccccc1)CC(=O)N1C[C@H](C2CCCCC2)C[C@H]1C(=O)O)C(C)C (stereo partly drawn) | 118
COc1ccc(N(C)c2nc(C)nc3ccccc23)cc1 | 220
N=c1c2c(-c3ccccc3)c(-c3ccccc3)n(Cc3ccccc3)c2ncn1Cc1ccc2c(c1)OCO2 | 3
Cn1c(CCCCCCC(=O)NO)nc2cc(N(CCCl)CCCl)ccc21 | < 1
COC(=O)N[C@H](C(=O)N1CCC[C@H]1C(=O)Nc1ccc([C@@H]2CC[C@@H](c3ccc(NC(=O)[C@@H]4CCCN4C(=O)[C@@H](NC(=O)OC)C(C)C)cc3)N2c2ccc(C(C)(C)C)cc2)cc1)C(C)C | < 1
Cc1cccc(-c2csc3ncnc(Sc4nnnn4C)c23)c1 | 225
N[C@@H](C(=O)N[C@@H]1C(=O)N2C(C(=O)O)=C(Cl)CC[C@H]12)c1ccccc1 | < 1
COc1ccc(CCn2cnc3c(c(-c4ccccc4)cn3Cc3ccccc3)c2=N)cc1OC | 284
N#Cc1ccc(C(=O)Nc2ccc(Cl)c(-c3nc4ncccc4o3)c2)c(F)c1 | 160
Cn1nnnc1Sc1ncnc2scc(-c3ccc4c(c3)OCO4)c12 | 240
CN1CCN(CCCN2c3ccccc3Sc3ccc(C(F)(F)F)cc32)CC1 | 53
CN(C)C(=O)NC1CCC(CCN2CCN(c3cccc(Cl)c3Cl)CC2)CC1 (stereo not drawn) | 100
O=C1CCc2ccc(OCCCCN3CCN(c4cccc(Cl)c4Cl)CC3)cc2N1 | 19
CCO/N=C(\C(=O)N[C@@H]1C(=O)N2C(C(=O)O)=C(Sc3nc(-c4cc[n+](C)cc4)cs3)CS[C@H]12)c1nsc(NP(=O)(O)O)n1 | 2
Cn1nnnc1Sc1ncnc2scc(-c3cccc(C(F)(F)F)c3)c12 | 296
Cn1nnnc1Sc1ncnc2scc(-c3cccc4ccccc34)c12 | 265
Cc1[nH]c(/C=C2\C(=O)Nc3ccc(F)cc32)c(C)c1C(=O)NC[C@H](O)CN1CCOCC1 | 42
O=C(Nc1ccc(S(=O)(=O)N2CCOCC2)cc1)c1cc(Cl)ccc1NS(=O)(=O)c1ccc(Cl)s1 | 85
COC1CC(=C(c2cccs2)c2cccs2)C[N+](C)(C)C1 (stereo not drawn) | < 1
CO[C@H]1/C=C\C=C(\C)C(=O)NC2=CC(=O)C(NCCN(C)C)=C(C[C@@H](C)C[C@H](OC)[C@H](O)[C@@H](C)/C=C(/C)[C@@H]1OC(N)=O)C2=O | 11.9
CCCN(CCC)C1CCc2ccc(O)cc2C1 (stereo not drawn) | 26
